Test system: AMPK
Assay: AMPK activation assay (enzyme-linked immunosorbent assay)
Type: cell-based
How it was run: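 Kit-based immunoassay; compounds screened as activators; standard reagents and protocol.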

| SMILES | EC50 [nM] |
| --- | --- |
| CS(=O)(=O)c1ccc(OC2CCN(C(=O)c3ccc(C(=O)NC4CCN(Cc5ccc(N6CCCC6)cc5)CC4)cn3)CC2)cc1 [Compound 230, 6-(4-(4-(methylsulfonyl)phenoxy)piperidine-1-carbonyl)-N-(1-(4-(pyrrolidin-1-yl)benzyl)piperidin-4-yl)nicotinamide] | 500 to 1000 |
| CS(=O)(=O)c1ccc(OC2CCN(C(=O)c3ccc(C(=O)Nc4ccc(Oc5ccc(F)cc5)nc4)nc3)CC2)cc1 [Compound 231, N-(6-(4-fluorophenoxy)pyridin-3-yl)-5-(4-(4-(methylsulfonyl)phenoxy)piperidine-1-carbonyl)picolinamide] | < 500 |
| CS(=O)(=O)c1ccc(C(=O)C2CCN(C(=O)c3ccc(C(=O)Nc4ccc(Oc5ccc(F)cc5)nc4)nc3)CC2)cc1 [Compound 232, N-(6-(4-fluorophenoxy)pyridin-3-yl)-5-(4-(4-(methylsulfonyl)benzoyl)piperidine-1-carbonyl)picolinamide] | < 500 |
| CS(=O)(=O)c1ccc(C(=O)C2CCN(C(=O)c3ccc(C(=O)NC4CCN(Cc5ccc(N6CCCC6)cc5)CC4)nc3)CC2)cc1 [Compound 233, 5-(4-(4-(methylsulfonyl)benzoyl)piperidine-1-carbonyl)-N-(1-(4-(pyrrolidin-1-yl)benzyl)piperidin-4-yl)picolinamide] | < 500 |
| COc1ccc(CN2CCC(NC(=O)c3ccc(C(=O)N4CCC(C(=O)c5ccc(S(C)(=O)=O)cc5)CC4)cn3)CC2)cc1 [Compound 234, N-(1-(4-methoxybenzyl)piperidin-4-yl)-5-(4-(4-(methylsulfonyl)benzoyl)piperidine-1-carbonyl)picolinamide] | < 500 |
| CS(=O)(=O)c1ccc(OC2CCN(C(=O)c3ccc(C(=O)Nc4ccc(Oc5ccc(F)cc5)nc4)cn3)CC2)cc1 [Compound 235, N-(6-(4-fluorophenoxy)pyridin-3-yl)-6-(4-(4-(methylsulfonyl)phenoxy)piperidine-1-carbonyl)nicotinamide] | < 500 |
| CS(=O)(=O)c1ccc(OC2CCN(C(=O)c3ccc(C(=O)NC4CCN(Cc5cc(F)cc(F)c5)CC4)cn3)CC2)cc1 [Compound 236, N-(1-(3,5-difluorobenzyl)piperidin-4-yl)-6-(4-(4-(methylsulfonyl)phenoxy)piperidine-1-carbonyl)nicotinamide] | < 500 |
| COc1ccc(CN2CCC(NC(=O)c3ccc(C(=O)N4CCC(Oc5ccc(S(C)(=O)=O)cc5)CC4)nc3)CC2)cc1 [Compound 237, N-(1-(4-methoxybenzyl)piperidin-4-yl)-6-(4-(4-(methylsulfonyl)phenoxy)piperidine-1-carbonyl)nicotinamide] | 1000 to 5000 |
| COc1cccc(CN2CCC(NC(=O)c3ccc(C(=O)N4CCC(Oc5ccc(S(C)(=O)=O)cc5)CC4)nc3)CC2)c1 [Compound 238, N-(1-(3-methoxybenzyl)piperidin-4-yl)-6-(4-(4-(methylsulfonyl)phenoxy)piperidine-1-carbonyl)nicotinamide] | 1000 to 5000 |
| CS(=O)(=O)c1ccc(OC2CCN(C(=O)c3ccc(C(=O)NC4CCN(Cc5cccc(OC(F)(F)F)c5)CC4)cn3)CC2)cc1 [Compound 239, 6-(4-(4-(methylsulfonyl)phenoxy)piperidine-1-carbonyl)-N-(1-(3-(trifluoromethoxy)benzyl)piperidin-4-yl)nicotinamide] | 1000 to 5000 |
| N#Cc1ccc(CN2CCC(NC(=O)c3ccc(C(=O)N4CCC(C(=O)c5ccc(N=[N+]=[N-])cc5)CC4)nc3)CC2)cc1 [Compound 240, 6-(4-(4-azidobenzoyl)piperidine-1-carbonyl)-N-(1-(4-cyanobenzyl)piperidin-4-yl)nicotinamide] | < 500 |
| COc1cccc(CN2CCC(NC(=O)c3ccc(C(=O)N4CCC(Oc5ccc(S(C)(=O)=O)cc5)CC4)cn3)CC2)c1 [Compound 241, N-(1-(3-methoxybenzyl)piperidin-4-yl)-5-(4-(4-(methylsulfonyl)phenoxy)piperidine-1-carbonyl)picolinamide] | < 500 |
| CS(=O)(=O)c1ccc(OC2CCN(C(=O)c3ccc(C(=O)NC4CCN(Cc5cccc(OC(F)(F)F)c5)CC4)nc3)CC2)cc1 [Compound 242, 5-(4-(4-(methylsulfonyl)phenoxy)piperidine-1-carbonyl)-N-(1-(3-(trifluoromethoxy)benzyl)piperidin-4-yl)picolinamide] | < 500 |
| CN1CCN(c2ccc(C(=O)C3CCN(C(=O)c4ccc(C(=O)NC5CCN(Cc6ccc(C#N)cc6)CC5)cn4)CC3)cc2)CC1 [Compound 243, N-(1-(4-cyanobenzyl)piperidin-4-yl)-6-(4-(4-(4-methylpiperazin-1-yl)benzoyl)piperidine-1-carbonyl)nicotinamide] | < 500 |
| CN1CCN(c2ccc(C(=O)C3CCN(C(=O)c4ccc(C(=O)NC5CCN(Cc6ccc(OC(F)(F)F)cc6)CC5)cn4)CC3)cc2)CC1 [Compound 244, 6-(4-(4-(4-methylpiperazin-1-yl)benzoyl)piperidine-1-carbonyl)-N-(1-(4-(trifluoromethoxy)benzyl)piperidin-4-yl)nicotinamide] | 5000 to 10000 |
| CN1CCN(c2ccc(C(=O)C3CCN(C(=O)c4ccc(C(=O)Nc5ccc(Oc6ccc(F)cc6)nc5)cn4)CC3)cc2)CC1 [Compound 245, N-(6-(4-fluorophenoxy)pyridin-3-yl)-6-(4-(4-(4-methylpiperazin-1-yl)benzoyl)piperidine-1-carbonyl)nicotinamide] | < 500 |
| N#Cc1ccc(CN2CCC(NC(=O)c3ccc(C(=O)N4CCC(Oc5ccc(S(=O)(=O)C6CC6)cc5)CC4)nc3)CC2)cc1 [Compound 246, N-(1-(4-cyanobenzyl)piperidin-4-yl)-6-(4-(4-(cyclopropylsulfonyl)phenoxy)piperidine-1-carbonyl)nicotinamide] | < 500 |
| O=C(Nc1ccc(Oc2ccc(F)cc2)nc1)c1ccc(C(=O)N2CCC(Oc3ccc(S(=O)(=O)C4CC4)cc3)CC2)nc1 [Compound 247, 6-(4-(4-(cyclopropylsulfonyl)phenoxy)piperidine-1-carbonyl)-N-(6-(4-fluorophenoxy)pyridin-3-yl)nicotinamide] | < 500 |
| O=C(NC1CCN(Cc2ccc(N3CCCC3)cc2)CC1)c1ccc(C(=O)N2CCC(Oc3ccc(S(=O)(=O)C4CC4)cc3)CC2)nc1 [Compound 248, 6-(4-(4-(cyclopropylsulfonyl)phenoxy)piperidine-1-carbonyl)-N-(1-(4-(pyrrolidin-1-yl)benzyl)piperidin-4-yl)nicotinamide] | < 500 |
| O=C(NC1CCN(Cc2ccc(OC(F)(F)F)cc2)CC1)c1ccc(C(=O)N2CCC(Oc3ccc(S(=O)(=O)C4CC4)cc3)CC2)nc1 [Compound 249, 6-(4-(4-(cyclopropylsulfonyl)phenoxy)piperidine-1-carbonyl)-N-(1-(4-(trifluoromethoxy)benzyl)piperidin-4-yl)nicotinamide] | < 500 |
| CS(=O)(=O)c1ccc(N2CCN(C(=O)c3ccc(C(=O)NC4CCN(Cc5ccc(C#N)cc5)CC4)nc3)CC2)cc1 [Compound 250, N-(1-(4-cyanobenzyl)piperidin-4-yl)-5-(4-(4-(methylsulfonyl)phenyl)piperazine-1-carbonyl)picolinamide] | < 500 |
| CC(C)S(=O)(=O)c1ccc(N2CCN(C(=O)c3ccc(C(=O)NC4CCN(Cc5ccc(C#N)cc5)CC4)nc3)CC2)cc1 [Compound 251, N-(1-(4-cyanobenzyl)piperidin-4-yl)-5-(4-(4-(isopropylsulfonyl)phenyl)piperazine-1-carbonyl)picolinamide] | < 500 |

Source: US20150087673A1, “METHODS FOR USING AND BIOMARKERS FOR AMPK-ACTIVATING COMPOUNDS” (RIGEL PHARMACEUTICALS, INC., priority 2013, published 2015)
